Data as given in article PMC8548882, “The Trp-rich Antimicrobial Amphiphiles With Intramolecular Aromatic Interactions for the Treatment of Bacterial Infection” (Frontiers in Microbiology, 2021).
Ends that are not written are not given here.

What was measured:
S.typhimurium 14028 = assay type: cell-based, Salmonella typhimurium ATCC 14028
Source text: (§1) The tested strains were kindly provided by the laboratory of Veterinary Microbiology and Immunology, the College of Veterinary Medicine, Northeast Agricultural University (gram-negative bacteria, Salmonella enterica serovar typhimurium C77-31, Salmonella typhimurium ATCC 14028, Escherichia coli ATCC 25922, Pseudomonas aeruginosa ATCC 27853 and gram-positive bacteria, Staphylococcus aureus ATCC 29213, Staphylococcus aureus ATCC 43300, Staphylococcus epidermidis ATCC 12228, Staphylococcus aureus ATCC 25923).

S.epidermidis 12228 = assay type: cell-based, Staphylococcus epidermidis ATCC 12228
Source text: as §1

[1] = system: P. aeruginosa ATCC 27853 cells; assay: Outer membrane permeabilization, NPN uptake; assay type: cell-based, Pseudomonas aeruginosa ATCC 27853
Protocol: The outer membrane permeabilization of peptides was observed by monitoring the fluorescence change of dye 1-N-phenylnaphthylamine (NPN; Dong et al., 2014c). The 10μm NPN (Sigma-Aldrich, Shanghai, China) was first incubated with the P. aeruginosa ATCC 27853 cells (OD600=0.2, suspended in 5mM HEPES buffer supplied with 5mM glucose) for 30min. Afterward, the mixture was subjected to the detection of fluorescence, which served as the background at the excitation wavelength (λ=350nm) and the emission wavelength (λ=420nm). Then the peptides with various concentrations (1μM, 2μM, 4μM, 8μM, 16μM, 32μM, and 64μM) were added into the mixture and the fluorescence was monitored until the value was tended to stable. The %NPN uptake against 10μg/ml polymyxin B was calculated to analyze the outer membrane permeability of peptides.

P. aeruginosa 27853 = assay type: cell-based, Pseudomonas aeruginosa ATCC 27853
Protocol: The famous microtiter dilution, National Committee for Clinical Laboratory Standards, was adopted to measure the antimicrobial ability of the engineering peptides ([Chou et al., 2016]). In brief, the 50μl with serial dilution was incubated with the same volume bacteria (1×10^5CFU/ml in midi-logarithmic phase) in a 96-well plate 18–24h at 37°C. The positive control was the bacteria treated with culture medium and the negative control was merely culture medium. […] The antimicrobial performance of peptides against P. aeruginosa 27853 cells was further studied under the complicated physiological conditions ([Lyu et al., 2016]). […] The serum was also taken into the consideration for the adverse impact on the antimicrobial effect of peptides.

[2] = system: hRBC, IPEC-J2, HEK 293T, RAW264.7; settings: hRBC, IPEC-J2, HEK 293T, RAW264.7; listed as F5
Protocol: Besides, the therapeutic index of peptide in the mammalian eukaryotic cell (RAW 264.7, HEK 293T, and IPEC J2) was also calculated to study the biocompatibility of peptides.

normal skin tissue = settings: mouse, in vivo, sc, 5 mg/kg
Protocol: The potential toxicity of peptides to normal skin tissues was further tested by TUNEL assay ([Huang et al., 2009]). […] The 100μl 100% DMSO treatment served as a positive control, which was well-known for its toxicity to induce skin necrosis. Then, the skin samples were harvested and were subjected to TUNEL assay and counterstain with 4,6-diamidino-2-phenylindole (DAPI).

IPEC-J2 cells = assay type: cell-based, porcine; settings: IPEC-J2; ratio of IC50 to GM
Protocol: (§2) The MTT (3-[4,5 dimethylthiozol-2-yl]-2,5-diphenylterazoliumbromide) dye was selected to analyze the cytotoxicity of peptides against the murine macrophage cell RAW 264.7 (National Collection of Authenticated Cell Cultures, Shanghai, China), human embryonic kidneys (HK293T), and the porcine intestinal epithelial cells (IPEC-J2) as in our previously study ([Li et al., 2020]). In short, the cells (10^4 cells/well) were seeded into 96-well plates and were cultivated overnight. Then the peptides with different final concentration (2μM, 4μM, 8μM, 16μM, 32μM, 64μM, and 128μM) were introduced into the plate and challenged with cells for 24h. After overnight incubation, the 50μl MTT (0.5mg/ml) was added into the cell cultures for 4h. Then the plate was centrifuged to discard the supernatants and obtain the formazan crystals. The DMSO (dimethyl sulfoxide) was employed as a solvent to dissolve the formazan crystals on the bottom of the plate and the optical density was read at 492nm with a microplate reader.

[3] = CD spectrum, secondary structure; assay type: physicochemical; settings: 150μM peptide
Protocol: The circular dichroism (CD) spectrum was further determined by analysis the secondary structure of peptides in different membrane-mimic environments ([Dong et al., 2014b]). The two totally different mimic environments were 10mM PBS and 50% TFE solution and the final concentration of peptides was fixed at 150μM Then the samples were transferred into a rectangular quartz cuvette (1mm path length) and further underwent the scanning of J-820 spectropolarimeter (Jasco, Tokyo, Japan) at the speed of 50nm/min. The wavelengths ranged from 190 to 250nm and were recorded to plot the observed ellipticity curve. The observed value at each time point was the average of three scans. The results were presented of mean residue ellipticity, which was calculated from the observed ellipticity as follows. θM=θobs⋅1000/(c⋅l⋅n); ([Zhu et al., 2014a])

HEK 293T cells = assay type: cell-based, human; settings: ratio of IC50 to GM
Protocol: as §2

P. aeruginosa ATCC 27853 = assay: Time-kill curve; assay type: cell-based, Pseudomonas aeruginosa ATCC 27853; settings: 1×10^5CFU/ml, colony counting on MHA, mean of three assays
Protocol: The logarithmic phase bacterial cells (P. aeruginosa ATCC 27853 and S. aureus ATCC 29213) were harvested and diluted to 1×10^5CFU/ml ([Dou et al., 2017]). The testing peptides at different concentrations (1×MIC, 2×MIC, and 4×MIC) were challenged with bacteria at a series of time intervals (0, 5, 10, 30, 60, and 120min). Then the reaction system was diluted several times and plated on Mueller-Hinton agar (MHA, AoBoX, Shanghai, China) plates. The plates were incubated 24h at 37°C in order to count the bacterial colonies. The data were the means of three times independent assays.

P.aeruginosa 27853 = assay type: cell-based, Pseudomonas aeruginosa ATCC 27853; settings: 27853
Source text: as §1
The famous microtiter dilution, National Committee for Clinical Laboratory Standards, was adopted to measure the antimicrobial ability of the engineering peptides ([Chou et al., 2016]). In brief, the 50μl with serial dilution was incubated with the same volume bacteria (1×10^5CFU/ml in midi-logarithmic phase) in a 96-well plate 18–24h at 37°C. The positive control was the bacteria treated with culture medium and the negative control was merely culture medium. The MICs (minimum inhibitory concentrations) were defined as the lowest concentration of peptides that prevented the production of visible turbidity ([Tossi et al., 2000]).

VKKWVKKWVKKWVKKW-NH2 [VW5]
MIC (S.typhimurium 14028): 2 µM
MIC (S.epidermidis 12228): 2 µM
%NPN uptake against 10μg/ml polymyxin B ([1]; peptide 1μM): 9.49%
%NPN uptake against 10μg/ml polymyxin B ([1]; peptide 64μM): 102.91%
change of MIC compared to the control (P. aeruginosa 27853; 12.5% serum): did not change
increase of MIC compared to the control (P. aeruginosa 27853; 50% serum): fourfold
GMTI, geometric mean of TI of various cell lines [2]: > 1218.17
apoptotic cells in epidermal layer (TUNEL) (normal skin tissue): no obvious green fluorescence
Therapeutic index (TI) (IPEC-J2 cells): 3051.34
secondary structure (CD) ([3]; 10mM sodium phosphate buffer): unordered conformation
secondary structure (CD) ([3]; 50% TFE): α-helical tendency
Therapeutic index (TI) (HEK 293T cells): 5090.03
time to complete eradication of bacterial cells (P. aeruginosa ATCC 27853; 2×MIC): 10 min
time to complete eradication of bacterial cells (P. aeruginosa ATCC 27853; 4×MIC): 30 min
MIC (P.aeruginosa 27853): 1 µM
